Laboratory results from article PMC7339578, “Multiple circulating alkaloids and saponins from intravenous Kang-Ai injection inhibit human cytochrome P450 and UDP-glucuronosyltransferase isozymes: potential drug–drug interactions” (Chinese Medicine, 2020).
Where two headings read alike, the source gives them in different places. One block for each compound: values may come before it.

Experiments:
P-gp = test system: P-gp; design: method as in PMID 24380838; conditions: cited from earlier work; for inhibition of P-gp: in vitro and in vivo
CYP2C8 = target: T1, CYP2C8 (Homo sapiens, UniProt P10632); assay: Inhibition of recombinant CYP2C8 (probe paclitaxel); type: in vitro ADME
T1 sequence (P10632 1-490): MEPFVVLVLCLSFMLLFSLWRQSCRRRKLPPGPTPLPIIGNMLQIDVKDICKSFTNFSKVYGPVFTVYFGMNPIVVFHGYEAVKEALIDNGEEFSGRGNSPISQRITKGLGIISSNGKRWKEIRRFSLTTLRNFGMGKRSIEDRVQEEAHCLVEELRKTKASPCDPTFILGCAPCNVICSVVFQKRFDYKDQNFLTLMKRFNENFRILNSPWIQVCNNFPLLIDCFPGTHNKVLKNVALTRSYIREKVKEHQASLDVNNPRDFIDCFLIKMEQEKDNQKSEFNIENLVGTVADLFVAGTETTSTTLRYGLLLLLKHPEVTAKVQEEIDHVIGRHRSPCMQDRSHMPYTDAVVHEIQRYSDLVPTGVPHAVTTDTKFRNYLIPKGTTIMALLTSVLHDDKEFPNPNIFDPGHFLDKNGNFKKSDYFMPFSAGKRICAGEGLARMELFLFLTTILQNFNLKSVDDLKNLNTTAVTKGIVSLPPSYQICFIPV
Description: (§1) In this study, phenacetin (100 μM), coumarin (100 μM), bupropion (100 μM), paclitaxel (60 μM), tolbutamide (200 μM), mephenytoin (100 μM), chlorzoxazone (200 μM) and nifedipine (40 μM) have been used as the probe substrates for CYP1A2, 2A6, 2B6, 2C8, 2C9, 2C19, 2E1 and 3A4, respectively.

[1] = design: method as in PMID 26586934; conditions: HIM; read-out: Km (metabolism to matrine); cited from earlier work
[2] = design: method as in earlier work; conditions: rat plasma; oxymatrine 30 mg/kg intravenously; cited from earlier work
[3] = test system: HepG2, MCF-7, HeLa, A549 cells; design: method as in PMID 31283981; conditions: cited from earlier work
[4] = design: method as in PMID 26586934; conditions: pooled HLM; read-out: Km (metabolism to matrine); cited from earlier work
[5] = test system: SW-620, BGC823, A375 cells; design: method as in PMID 31283981; conditions: cited from earlier work
[6] = design: method as in PMID 16500065; conditions: intravenous infusion of 600 mg oxymatrine, healthy male volunteers; cited from earlier work
CYP3A4 = test system: CYP3A4; design: method as in PMID 26586934; conditions: CYP3A4 isozyme; read-out: Km (metabolism to matrine); cited from earlier work
NTCP = test system: NTCP; design: method as in PMID 30978651; conditions: cited from earlier work
CYP and UGT enzymes = assay: Inhibition of the panel of eight CYP and three UGT isozymes (statements over all enzymes); type: in vitro ADME, human; conditions: compound 100 μM
Description: After centrifugation (13,800g, 10 min), the supernatant (8 μL) was obtained for determination by UHPLC system.
as §1
Similarly, β-estradiol (60 μM), propofol (40 μM) and 4-MU (350 μM) were typically used as the substrates for UGT1A1, 1A9 and 2B7, respectively. After optimization of incubation conditions (Additional file 1: Fig. S2), the protein concentrations for UGT1A1, 1A9, and 2B7 were 0.125, 0.05, and 0.05 mg/mL, respectively.

[7] = recombinant isozyme, mean ± SD of triplicate, unit not given (IC50 classes in μM), read-out: IC50 towards CYP2C8

SMILES: O=C1CCC[C@@H]2[C@H]3CCCN4CCC[C@@H](CN12)[C@@H]34 [Compound A1, Matrine]
inhibition of P-gp (P-gp): did not demonstrate the inhibition of P-gp
IC50 (CYP2C8): > 100 µM

SMILES: O=C1CCC[C@@H]2[C@H]3CCC[N+]4([O-])CCC[C@@H](CN12)[C@@H]34 (stereo partly shown) [Compound A3, Oxymatrine]
Km [1]: 150 µM
AUC0–12h [2]: 16234.27 ng·h/mL
CL [2]: 3.10 L/h
Cmax [2]: 32847.57 ng/mL
t1/2 [2]: 34.2 min
inhibition of P-gp (P-gp): did not demonstrate the inhibition of P-gp
IC50 (CYP2C8; IC50 towards CYP2C8, recombinant isozyme, mean ± SD of triplicate, unit not given (IC50 classes in μM)): > 100 µM
reported effective concentrations (IC50 or EC50 values) [3]: 473.48 to 3787.84 µM
Km [4]: 221 µM
effective concentrations to inhibit tumor cell viability [5]: 0.10 to 40.00 µmol/L
fraction of oxymatrine reduced to matrine [6]: about 19.9%
Km (CYP3A4): 341 µM

SMILES: CC(C)(O)[C@@H]1CC[C@](C)([C@H]2[C@@H](O)C[C@@]3(C)[C@@H]4C[C@H](O[C@@H]5O[C@H](CO)[C@@H](O)[C@H](O)[C@H]5O)[C@H]5C(C)(C)[C@@H](O[C@@H]6OC[C@@H](O)[C@H](O)[C@H]6O)CC[C@@]56C[C@@]46CC[C@]23C)O1 [Compound B2, Astragaloside IV]
inhibition activity (P-gp; MDR1-MDCKII cells, 100 μM): 8.22%
IC50 (CYP2C8; [7]): > 100 µM

SMILES: CC(C)=CCC[C@](C)(O[C@@H]1O[C@H](CO)[C@@H](O)[C@H](O)[C@H]1O)[C@H]1CC[C@]2(C)[C@@H]1[C@H](O)C[C@@H]1[C@@]3(C)CC[C@H](O)C(C)(C)[C@@H]3[C@@H](O[C@@H]3O[C@H](CO)[C@@H](O)[C@H](O)[C@H]3O)C[C@]12C [Compound C6, Ginsenoside Rg1]
IC50 (CYP2C8; [7]): > 100 µM
IC50 (NTCP): 50.5 µM

SMILES: CC(C)=CCC[C@](C)(O)[C@H]1CC[C@]2(C)[C@@H]1[C@H](O)C[C@@H]1[C@@]3(C)CC[C@H](O)C(C)(C)[C@@H]3[C@@H](O[C@@H]3O[C@H](CO)[C@@H](O)[C@H](O)[C@H]3O[C@@H]3O[C@H](CO)[C@@H](O)[C@H](O)[C@H]3O)C[C@]12C [Compound C7, Ginsenoside Rf]
IC50 (CYP2C8; [7]): > 100 µM
changes against these CYP and UGT enzymes (CYP and UGT enzymes): almost no changes

inhibition type (smallest AIC and SC) (CYP2C8; CYP2C8): mixed-type inhibition
Ki (CYP2C8; CYP2C8, competitive model): 8.2 ± 1.1 µM
Ki (CYP2C8; CYP2C8, mixed-type model): 13.3 ± 2.9 µM
α (CYP2C8; CYP2C8, mixed-type model): 4.2 ± 2.3
Ki (CYP2C8; CYP2C8, noncompetitive model): 26.5 ± 2.2 µM
Cmax/Ki ([I]/Ki) (CYP2C8; CYP2C8, selected model, rat plasma Cmax): 0.1
IC50 (CYP2C8; paclitaxel 60 μM, read-out: IC50 towards CYP2C8): 24 µM
IC50 (CYP2C8; [7]): 24 ± 10.7 µM
SMILES: CC(C)=CCC[C@](C)(O[C@@H]1O[C@H](CO)[C@@H](O)[C@H](O)[C@H]1O)[C@H]1CC[C@]2(C)[C@@H]1[C@H](O)C[C@@H]1[C@@]3(C)CC[C@H](O)C(C)(C)[C@@H]3[C@@H](O[C@@H]3O[C@H](CO)[C@@H](O)[C@H](O)[C@H]3O[C@@H]3O[C@@H](C)[C@H](O)[C@@H](O)[C@H]3O)C[C@]12C [Compound C9, Ginsenoside Re]

IC50 (CYP2C8; [7]): > 100 µM
SMILES: CC(C)=CCC[C@](C)(O[C@@H]1O[C@H](CO)[C@@H](O)[C@H](O)[C@H]1O)[C@H]1CC[C@]2(C)[C@@H]1[C@H](O)C[C@@H]1[C@@]3(C)CC[C@H](O[C@@H]4O[C@H](CO)[C@@H](O)[C@H](O)[C@H]4O[C@@H]4O[C@H](CO)[C@@H](O)[C@H](O)[C@H]4O)C(C)(C)[C@@H]3CC[C@]12C [Compound D2, Ginsenoside Rd]

SMILES: CC(C)=CCC[C@](C)(O[C@@H]1O[C@H](CO[C@@H]2O[C@@H](CO)[C@H](O)[C@H]2O)[C@@H](O)[C@H](O)[C@H]1O)[C@H]1CC[C@]2(C)[C@@H]1[C@H](O)C[C@@H]1[C@@]3(C)CC[C@H](O[C@@H]4O[C@H](CO)[C@@H](O)[C@H](O)[C@H]4O[C@@H]4O[C@H](CO)[C@@H](O)[C@H](O)[C@H]4O)C(C)(C)[C@@H]3CC[C@]12C [Compound D3, Ginsenoside Rc]
IC50 (CYP2C8; [7]): > 100 µM

IC50 (CYP2C8; [7]): > 100 µM
SMILES: CC(C)=CCC[C@](C)(O[C@@H]1O[C@H](CO[C@@H]2O[C@H](CO)[C@@H](O)[C@H](O)[C@H]2O)[C@@H](O)[C@H](O)[C@H]1O)[C@H]1CC[C@]2(C)[C@@H]1[C@H](O)C[C@@H]1[C@@]3(C)CC[C@H](O[C@@H]4O[C@H](CO)[C@@H](O)[C@H](O)[C@H]4O[C@@H]4O[C@H](CO)[C@@H](O)[C@H](O)[C@H]4O)C(C)(C)[C@@H]3CC[C@]12C [Compound D5, Ginsenoside Rb1]
